Source: US5262411A, “Isocephem derivatives, and antimicrobial composition containing the derivatives” (Otsuka Pharmaceutical Co., Ltd., priority 1989, dated 1993)
Converted amounts (≈) assume the structure as drawn. Like-named read-outs stand apart in the source and are kept apart here.

Tests used:
Type in all cases: cell-based
M. moganii IIDkono = assay: MIC against M. moganii IIDkono by the plate diluted method
Experimental: (§1) In order to investigate the in vitro activity of the test compounds against various bacteria, the minimal inhibitory concentration (MIC) values were determined by the plate diluted method (See CHEMOTHERAPY, 22, 1126-1128, 1974.)
(§2) Each strain was adjusted to 1×10^6 cells/ml (O.D. 600 mμ, 0.07 to 0.16).

S. marcescens IFO 12648 = assay: MIC against S. marcescens IFO 12648 by the plate diluted method; conditions: Serratia marcescens, IFO12648; S. marcescens IFO 12648; 1×10^6 cells/ml; read-out: MIC
Experimental: as §1, §2

P. aeruginosa ATCC-10145 = assay: MIC against P. aeruginosa ATCC-10145 by the plate diluted method; conditions: Pseudomonas aeruginosa, ATCC10145; P. aeruginosa ATCC-10145; 1×10^6 cells/ml; read-out: MIC
Experimental: as §1, §2

E. coli No. 29 = assay: MIC against E. coli No. 29 by the plate diluted method; conditions: Escherichia coli, 1×10^6 cells/ml
Experimental: as §1, §2

S. aureaus FDA-209P = assay: MIC against S. aureaus FDA-209P by the plate diluted method; conditions: Staphylococcus aureus, FDA209P
Experimental: as §1, §2

P. aeruginosa E-2 = assay: MIC against P. aeruginosa E-2 by the plate diluted method; conditions: Pseudomonas aeruginosa, E2; P. aeruginosa E-2; 1×10^6 cells/ml; read-out: MIC
Experimental: as §1, §2

K. pneumoniae NCTC-9632 = assay: MIC against K. pneumoniae NCTC-9632 by the plate diluted method; conditions: Klebsiella pneumoniae, NCTC9632; K. pneumoniae NCTC-9632; 1×10^6 cells/ml; read-out: MIC
Experimental: as §1, §2

A. calcoaceticus Ac-54 = assay: MIC against A. calcoaceticus Ac-54 by the plate diluted method; conditions: Acinetobacter calcoaceticus, AC54; A. calcoaceticus Ac-54; 1×10^6 cells/ml; read-out: MIC
Experimental: as §1, §2

[1] = S. aureaus FDA-209P, 1×10^6 cells/ml, read-out: MIC
[2] = M. moganii IIDkono, 1×10^6 cells/ml, read-out: MIC

| Compound | MIC (S. marcescens IFO 12648) | MIC (P. aeruginosa ATCC-10145) | MIC (E. coli No. 29) | MIC (S. aureaus FDA-209P; [1]) | MIC (P. aeruginosa E-2) | MIC (K. pneumoniae NCTC-9632) | MIC (A. calcoaceticus Ac-54) | MIC (M. moganii IIDkono; [2]) | MIC (M. moganii IIDkono) | MIC (S. aureaus FDA-209P) |
| --- | --- | --- | --- | --- | --- | --- | --- | --- | --- | --- |
| Cc1nnc(SCC2=C(C(=O)O)N3C(=O)[C@@H](NC(=O)/C(=N\OCc4cc(=O)c(O)cn4O)c4csc(N)n4)[C@H]3CS2)s1 [No. 1, (6S,7S)-7-[(Z)-2-(2-Aminothiazol-4-yl)-2-(1,5-dihydroxy-4-pyridone-2-ylmethoxyimino)acetamide]-3-(2-methyl-1,3,4-thiadiazol-5-yl)thiomethyl-isocephem-4-carboxylic acid] | 0.024 µg/mL (≈ 0.0368 µM) | 0.1 µg/mL (≈ 0.153 µM) | 0.024 µg/mL (≈ 0.0368 µM) | 25 µg/mL (≈ 38.3 µM) | 0.2 µg/mL (≈ 0.306 µM) | 0.012 µg/mL (≈ 0.0184 µM) | 0.1 µg/mL (≈ 0.153 µM) | – | 0.05 µg/mL (≈ 0.0766 µM) | – |
| CC(C)(O/N=C(\C(=O)N[C@@H]1C(=O)N2C(C(=O)[O-])=C(CSc3cc[n+](CC(=O)c4ccc(O)c(O)c4)cc3)CS[C@H]12)c1csc(N)n1)C(=O)O [No. 16, (6R,7R)-7-[(Z)-2-(2-aminothiazol-4-yl)-2-(1-carboxy-1-methylethoxy)iminoacetamide]-3-[[1-[2-(3,4-dihydroxyphenyl)-2-oxo]ethyl]-4-pyridinio]thiomethyl-3-cephem-4-carboxylate] | 0.024 µg/mL (≈ 0.0329 µM) | 0.1 µg/mL (≈ 0.137 µM) | 0.012 µg/mL (≈ 0.0165 µM) | – | 0.1 µg/mL (≈ 0.137 µM) | 0.012 µg/mL (≈ 0.0165 µM) | 0.05 µg/mL (≈ 0.0686 µM) | 0.05 µg/mL (≈ 0.0686 µM) | – | 1.56 µg/mL (≈ 2.14 µM) |
| CC(C)(O/N=C(\C(=O)N[C@@H]1C(=O)N2C(C(=O)[O-])=C(CSc3cc[n+](CC(=O)c4ccc(O)c(O)c4)cc3)SC[C@H]12)c1csc(N)n1)C(=O)O [No. 3, (6S,7S)-7-[(Z)-2-(2-aminothiazol-4-yl)-2-(1-carboxy-1-methylethoxy)iminoacetamide]-3-{[1-[2-(3,4-dihydroxyphenyl)-2-oxo]ethyl]-4-pyridinio}thiomethylisocephem-4-carboxylate] | 0.024 µg/mL (≈ 0.0329 µM) | 0.05 µg/mL (≈ 0.0686 µM) | ≤ 0.006 µg/mL | 0.78 µg/mL (≈ 1.07 µM) | 0.05 µg/mL (≈ 0.0686 µM) | ≤ 0.006 µg/mL | 0.1 µg/mL (≈ 0.137 µM) | 0.024 µg/mL (≈ 0.0329 µM) | – | – |

Second part, led by results:

| MIC (S. marcescens IFO 12648) | MIC (P. aeruginosa ATCC-10145) | MIC (E. coli No. 29) | MIC (S. aureaus FDA-209P; [1]) | MIC (P. aeruginosa E-2) | MIC (K. pneumoniae NCTC-9632) | MIC (A. calcoaceticus Ac-54) | MIC (M. moganii IIDkono; [2]) | Compound | MIC (M. moganii IIDkono) | MIC (S. aureaus FDA-209P) |
| --- | --- | --- | --- | --- | --- | --- | --- | --- | --- | --- |
| 0.05 µg/mL (≈ 0.0765 µM) | 0.1 µg/mL (≈ 0.153 µM) | 0.05 µg/mL (≈ 0.0765 µM) | 50 µg/mL (≈ 76.5 µM) | 0.2 µg/mL (≈ 0.306 µM) | 0.05 µg/mL (≈ 0.0765 µM) | 0.78 µg/mL (≈ 1.19 µM) | 0.05 µg/mL (≈ 0.0765 µM) | Nc1nc(/C(=N/OCc2cc(=O)c(O)cn2O)C(=O)N[C@@H]2C(=O)N3C(C(=O)O)=C(CSc4nnc(N)s4)SC[C@H]23)cs1 [No. 10, (6S,7S)-7-[(Z)-2-(2-aminothiazol-4-yl)-2-(1,5-dihydroxy-4-pyridone-2-ylmethoxyimino)acetamide]-3-(2-amino-1,3,4-thiadiazol-5-ylthiomethyl)isocephem-4-carboxylic acid] | – | – |
| 0.012 µg/mL (≈ 0.0176 µM) | 0.05 µg/mL (≈ 0.0735 µM) | 0.012 µg/mL (≈ 0.0176 µM) | 100 µg/mL (≈ 147 µM) | 0.05 µg/mL (≈ 0.0735 µM) | ≤ 0.006 µg/mL | 0.012 µg/mL (≈ 0.0176 µM) | 0.024 µg/mL (≈ 0.0353 µM) | Nc1nc(/C(=N/OCc2cc(=O)c(O)cn2O)C(=O)N[C@@H]2C(=O)N3C(C(=O)O)=C(CSc4nnnn4CC(=O)O)SC[C@H]23)cs1 [No. 9, (6S,7S)-7-[(Z)-2-(2-aminothiazol-4-yl)-2-(1,5-dihydroxy-4-pyridone-2-ylmethoxyimino)acetamide]-3-(1-carboxymethyl-1H-tetrazole-5-ylthiomethyl)isocephem-4-carboxylic acid] | – | – |
| 0.012 µg/mL (≈ 0.0169 µM) | 0.05 µg/mL (≈ 0.0704 µM) | 0.012 µg/mL (≈ 0.0169 µM) | 100 µg/mL (≈ 141 µM) | 0.05 µg/mL (≈ 0.0704 µM) | ≤ 0.006 µg/mL | 0.012 µg/mL (≈ 0.0169 µM) | 0.024 µg/mL (≈ 0.0338 µM) | Cc1nc(SCC2=C(C(=O)O)N3C(=O)[C@@H](NC(=O)/C(=N\OCc4cc(=O)c(O)cn4O)c4csc(N)n4)[C@H]3CS2)sc1CC(=O)O [No. 13, (6S,7S)-7-[(Z)-2-(2-aminothiazol-4-yl)-2-(1,5-dihydroxy-4-pyridone-2-ylmethoxyimino)acetamide]-3-[(5-carboxymethyl-4-methyl-thiazol-2-yl)thiomethyl]isocephem-4-carboxylic acid] | – | – |
